Reference: US20050075388A1 (published 2005)

Compound | melting point
O=c1oc2cc(O)c(O)cc2c(O)c1C(CCCC(c1c(O)c2cc(O)c(O)cc2oc1=O)c1c(O)c2cc(O)c(O)cc2oc1=O)c1c(O)c2cc(O)c(O)cc2oc1=O | > 300 °C
O=c1oc2ccccc2c(O)c1C(CC(c1c(O)c2ccccc2oc1=O)c1c(O)c2ccccc2oc1=O)c1c(O)c2ccccc2oc1=O | 286 to 288 °C
COC1Oc2c(c(=O)oc3cc(O)ccc23)C1c1c(O)c2ccc(O)cc2oc1=O (stereo not shown) | > 300 °C
O=Cc1ccccc1C(c1c(O)c2ccc(O)cc2oc1=O)c1c(O)c2ccc(O)cc2oc1=O | > 300 °C
O=c1oc2c(O)c(O)ccc2c(O)c1C(CCCC(c1c(O)c2ccc(O)c(O)c2oc1=O)c1c(O)c2ccc(O)c(O)c2oc1=O)c1c(O)c2ccc(O)c(O)c2oc1=O | > 300 °C
O=c1oc2cc(O)ccc2c(O)c1-c1coc2c1c(=O)oc1cc(O)ccc12 | > 300 °C
O=c1oc2cc(O)c(O)cc2c(O)c1C1=CCOc2oc3ccccc3c(=O)c21 | 258 to 260 °C
CCOC1Oc2c(c(=O)oc3ccccc23)C1c1c(O)c2ccccc2oc1=O (stereo not shown) | 166 to 169 °C
O=CC(c1c(O)c2ccc(O)cc2oc1=O)c1c(O)c2ccc(O)cc2oc1=O | > 300 °C
O=c1oc2cc(O)ccc2c(O)c1C(CCCC(c1c(O)c2ccc(O)cc2oc1=O)c1c(O)c2ccc(O)cc2oc1=O)c1c(O)c2ccc(O)cc2oc1=O | 299 to 302 °C
O=c1oc2cc(O)cc(O)c2c(O)c1C1=CCOc2oc3ccccc3c(=O)c21 | 254 to 256 °C
O=c1oc2ccccc2c(O)c1C1c2ccccc2Oc2c1c(=O)oc1ccccc21 (stereo not shown) | > 255 °C (dec.)
O=c1oc2ccccc2c(O)c1C(CCCC(c1c(O)c2ccccc2oc1=O)c1c(O)c2ccccc2oc1=O)c1c(O)c2ccccc2oc1=O | 291 to 294 °C
O=c1oc2cc(O)cc(O)c2c(O)c1C1c2ccccc2Oc2c1c(=O)oc1cc(O)cc(O)c21 (stereo not shown) | > 300 °C
O=Cc1ccccc1C(c1c(O)c2ccc(O)c(O)c2oc1=O)c1c(O)c2ccc(O)c(O)c2oc1=O | > 300 °C
O=c1oc2cc(O)cc(O)c2c(O)c1C(CCCC(c1c(O)c2c(O)cc(O)cc2oc1=O)c1c(O)c2c(O)cc(O)cc2oc1=O)c1c(O)c2c(O)cc(O)cc2oc1=O | > 300 °C
